Data from ChEMBL document CHEMBL4152284, “Novel tetrahydrocarbazole benzyl pyridine hybrids as potent and selective butryl cholinesterase inhibitors with neuroprotective and β-secretase inhibition activities” (Eur J Med Chem, 2018).

How the values were obtained:
Cholinesterase [1] = target: T1, Cholinesterase (Equus caballus, UniProt P81908); experiment: Inhibition of equine serum BChE using butyrylthiocholine iodide as substrate preincubated for 10 mins followed by substrate addition measured for 5 mins by Ellman's method
[2] = Selectivity index, ratio of IC50 for Torpedo californica AChE to IC50 for equine serum BChE
Acetylcholinesterase [3] = target: T2, Acetylcholinesterase (Torpedo californica, UniProt P04058); experiment: Inhibition of Torpedo californica AChE using acetylthiocholine iodide as substrate preincubated for 10 mins followed by substrate addition measured for 5 mins by Ellman's method; type: single protein, Tetronarce californica
Acetylcholinesterase [4] = target: T2, Acetylcholinesterase; experiment: Inhibition of Torpedo californica AChE using acetylthiocholine iodide as substrate preincubated for 15 mins followed by substrate addition by Ellman's method; parameters: species or system Tetronarce californica
Cholinesterase [5] = target: T1, Cholinesterase; experiment: Inhibition of equine serum BChE using butyrylthiocholine iodide as substrate preincubated for 15 mins followed by substrate addition by Ellman's method
[6] = Selectivity index, ratio of IC50 for electric eel AChE to IC50 for equine serum BChE
Acetylcholinesterase [7] = target: T3, Acetylcholinesterase (Electrophorus electricus, UniProt O42275); experiment: Inhibition of electric eel AChE using acetylthiocholine iodide as substrate preincubated for 10 mins followed by substrate addition measured for 6 mins by Ellman's method
Cholinesterase [8] = target: T1, Cholinesterase; experiment: Inhibition of equine serum BChE using butyrylthiocholine iodide as substrate preincubated for 10 mins followed by substrate addition measured for 6 mins by Ellman's method
Acetylcholinesterase [9] = target: T3, Acetylcholinesterase; experiment: Inhibition of electric eel AChE using acetylthiocholine iodide as substrate preincubated for 15 mins followed by substrate addition measured after 15 mins by Ellman's method
Cholinesterase [10] = target: T1, Cholinesterase; experiment: Inhibition of equine serum BChE using butyrylthiocholine iodide as substrate preincubated for 15 mins followed by substrate addition measured after 15 mins by Ellman's method
[11] = target: Beta-secretase 1 (Homo sapiens) (UniProt P56817); experiment: Inhibition of recombinant human BACE1 (1 to 460 residues) expressed in baculovirus-infected insect cells at 10 uM using Rh-EVNLDAEFK-quencher as substrate measured after 90 mins by fluorescence assay relative to control
[12] = target: Cholinesterase (Homo sapiens) (UniProt P06276); experiment: Inhibition of human BchE (unknown origin)-induced amyloid beta (1 to 42) aggregation at 10 uM after 48 hrs by thioflavin T fluorescence method relative to control
[13] = target: Cholinesterase (Equus caballus) (UniProt P81908); experiment: Potency index, ratio of donepezil IC50 to test compound IC50 for equine serum BChE
PC-12 = experiment: Neuroprotective activity against H2O2-induced cell death in rat PC12 cells assessed as cell viability at 10 uM pretreated for 3 hrs followed by H2O2 addition and measured after 12 hrs by MTT assay relative to control; type: functional; conditions: read-out: Activity
[14] = target: Amyloid-beta precursor protein (Homo sapiens) (UniProt P05067); experiment: Inhibition of HFIP-pretreated amyloid beta (1 to 42) (unknown origin) self-induced aggregation at 10 uM after 48 hrs by thioflavin-T fluorescence assay relative to control
[15] = target: Beta-secretase 1 (Homo sapiens) (UniProt P56817); experiment: Inhibition of recombinant human BACE1 (1 to 460 residues) expressed in baculovirus-infected insect cells at 50 uM using Rh-EVNLDAEFK-quencher as substrate measured after 90 mins by fluorescence assay relative to control
Cholinesterase [16] = target: T1, Cholinesterase; experiment: Mixed-type inhibition of equine serum BChE using varying levels of butyrylthiocholine iodide as substrate by Lineweaver-burk plot analysis

T2 sequence (P04058 whole entry): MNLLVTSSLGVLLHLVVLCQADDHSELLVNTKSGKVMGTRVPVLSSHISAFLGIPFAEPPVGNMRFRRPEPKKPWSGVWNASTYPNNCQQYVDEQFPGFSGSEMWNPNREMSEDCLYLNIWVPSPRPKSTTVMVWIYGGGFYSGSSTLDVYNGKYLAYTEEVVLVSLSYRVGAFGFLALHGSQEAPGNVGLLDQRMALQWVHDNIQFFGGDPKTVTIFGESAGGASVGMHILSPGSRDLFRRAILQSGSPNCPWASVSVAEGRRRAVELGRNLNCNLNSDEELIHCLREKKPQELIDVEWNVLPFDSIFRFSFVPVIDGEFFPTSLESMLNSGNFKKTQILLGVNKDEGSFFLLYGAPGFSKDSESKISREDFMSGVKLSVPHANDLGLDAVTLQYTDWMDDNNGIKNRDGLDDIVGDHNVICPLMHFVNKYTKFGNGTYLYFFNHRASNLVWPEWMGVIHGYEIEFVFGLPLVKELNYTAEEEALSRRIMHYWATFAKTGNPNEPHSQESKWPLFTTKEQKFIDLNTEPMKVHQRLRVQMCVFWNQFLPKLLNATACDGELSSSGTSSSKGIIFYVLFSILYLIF
T1 sequence (P81908 whole entry): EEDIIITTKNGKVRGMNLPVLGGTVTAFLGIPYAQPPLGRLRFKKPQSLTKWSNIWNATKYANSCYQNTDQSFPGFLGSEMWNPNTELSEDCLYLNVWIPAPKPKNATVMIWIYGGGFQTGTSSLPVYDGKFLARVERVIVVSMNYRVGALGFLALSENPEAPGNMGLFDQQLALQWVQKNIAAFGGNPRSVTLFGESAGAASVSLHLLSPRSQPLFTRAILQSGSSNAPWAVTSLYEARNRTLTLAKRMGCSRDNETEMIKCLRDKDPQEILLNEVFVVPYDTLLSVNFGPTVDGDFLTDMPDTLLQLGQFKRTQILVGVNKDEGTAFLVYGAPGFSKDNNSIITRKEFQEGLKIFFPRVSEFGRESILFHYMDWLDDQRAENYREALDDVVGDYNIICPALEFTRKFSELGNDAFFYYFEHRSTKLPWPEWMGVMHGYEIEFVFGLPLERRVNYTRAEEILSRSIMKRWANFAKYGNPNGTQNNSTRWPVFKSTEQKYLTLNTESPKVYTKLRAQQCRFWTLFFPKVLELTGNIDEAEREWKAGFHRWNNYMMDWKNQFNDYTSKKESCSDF
T3 sequence (O42275 whole entry): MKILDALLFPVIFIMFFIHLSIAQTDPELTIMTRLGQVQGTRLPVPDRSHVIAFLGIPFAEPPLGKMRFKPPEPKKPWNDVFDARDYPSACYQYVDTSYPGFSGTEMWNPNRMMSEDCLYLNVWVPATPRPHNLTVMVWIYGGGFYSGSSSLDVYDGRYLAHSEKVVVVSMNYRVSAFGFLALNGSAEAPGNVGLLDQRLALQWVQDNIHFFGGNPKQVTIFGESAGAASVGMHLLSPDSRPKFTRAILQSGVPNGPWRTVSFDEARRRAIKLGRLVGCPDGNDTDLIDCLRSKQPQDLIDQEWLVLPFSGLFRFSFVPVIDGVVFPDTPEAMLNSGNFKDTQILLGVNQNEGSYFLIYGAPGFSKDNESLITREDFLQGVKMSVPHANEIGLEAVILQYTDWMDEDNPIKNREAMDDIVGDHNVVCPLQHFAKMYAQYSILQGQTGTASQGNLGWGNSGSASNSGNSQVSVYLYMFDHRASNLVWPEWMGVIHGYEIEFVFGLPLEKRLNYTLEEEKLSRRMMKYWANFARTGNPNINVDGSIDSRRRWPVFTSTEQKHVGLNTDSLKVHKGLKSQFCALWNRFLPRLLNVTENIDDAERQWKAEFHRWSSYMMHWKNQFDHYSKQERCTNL
Beta-secretase 1 (Homo sapiens), sequence (P56817 whole entry, the tested form may be a part): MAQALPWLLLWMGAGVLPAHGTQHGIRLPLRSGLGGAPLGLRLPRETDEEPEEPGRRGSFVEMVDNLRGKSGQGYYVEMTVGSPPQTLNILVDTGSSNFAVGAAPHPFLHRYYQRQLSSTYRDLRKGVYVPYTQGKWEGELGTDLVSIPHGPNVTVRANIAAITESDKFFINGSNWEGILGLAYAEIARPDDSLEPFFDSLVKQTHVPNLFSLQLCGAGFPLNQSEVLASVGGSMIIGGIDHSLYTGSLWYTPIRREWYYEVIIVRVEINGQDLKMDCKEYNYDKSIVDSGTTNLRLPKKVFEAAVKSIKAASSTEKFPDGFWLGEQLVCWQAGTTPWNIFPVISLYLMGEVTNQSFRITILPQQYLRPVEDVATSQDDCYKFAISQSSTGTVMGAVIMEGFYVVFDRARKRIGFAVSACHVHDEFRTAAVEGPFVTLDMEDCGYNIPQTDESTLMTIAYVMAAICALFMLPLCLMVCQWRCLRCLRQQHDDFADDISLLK
Cholinesterase (Equus caballus), sequence (P81908 whole entry): as the sequence (P81908 whole entry) above
Cholinesterase (Homo sapiens), sequence (P06276 whole entry): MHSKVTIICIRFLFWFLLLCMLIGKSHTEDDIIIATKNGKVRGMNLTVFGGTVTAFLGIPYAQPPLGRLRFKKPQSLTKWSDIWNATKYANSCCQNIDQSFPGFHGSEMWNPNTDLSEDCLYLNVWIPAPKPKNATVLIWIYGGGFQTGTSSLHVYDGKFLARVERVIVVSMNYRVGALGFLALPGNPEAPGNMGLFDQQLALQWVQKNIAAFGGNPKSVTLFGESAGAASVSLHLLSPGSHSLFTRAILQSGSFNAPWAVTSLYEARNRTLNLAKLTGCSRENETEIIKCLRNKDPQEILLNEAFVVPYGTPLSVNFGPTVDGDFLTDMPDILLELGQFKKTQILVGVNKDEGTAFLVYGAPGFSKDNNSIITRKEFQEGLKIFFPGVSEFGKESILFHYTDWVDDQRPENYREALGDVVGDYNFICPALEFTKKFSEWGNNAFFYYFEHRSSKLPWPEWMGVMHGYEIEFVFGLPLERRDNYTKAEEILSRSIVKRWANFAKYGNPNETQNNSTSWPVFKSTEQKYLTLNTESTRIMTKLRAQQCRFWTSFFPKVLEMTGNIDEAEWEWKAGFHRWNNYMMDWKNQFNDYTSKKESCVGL
Amyloid-beta precursor protein (Homo sapiens), sequence (P05067 whole entry, the tested form may be a part): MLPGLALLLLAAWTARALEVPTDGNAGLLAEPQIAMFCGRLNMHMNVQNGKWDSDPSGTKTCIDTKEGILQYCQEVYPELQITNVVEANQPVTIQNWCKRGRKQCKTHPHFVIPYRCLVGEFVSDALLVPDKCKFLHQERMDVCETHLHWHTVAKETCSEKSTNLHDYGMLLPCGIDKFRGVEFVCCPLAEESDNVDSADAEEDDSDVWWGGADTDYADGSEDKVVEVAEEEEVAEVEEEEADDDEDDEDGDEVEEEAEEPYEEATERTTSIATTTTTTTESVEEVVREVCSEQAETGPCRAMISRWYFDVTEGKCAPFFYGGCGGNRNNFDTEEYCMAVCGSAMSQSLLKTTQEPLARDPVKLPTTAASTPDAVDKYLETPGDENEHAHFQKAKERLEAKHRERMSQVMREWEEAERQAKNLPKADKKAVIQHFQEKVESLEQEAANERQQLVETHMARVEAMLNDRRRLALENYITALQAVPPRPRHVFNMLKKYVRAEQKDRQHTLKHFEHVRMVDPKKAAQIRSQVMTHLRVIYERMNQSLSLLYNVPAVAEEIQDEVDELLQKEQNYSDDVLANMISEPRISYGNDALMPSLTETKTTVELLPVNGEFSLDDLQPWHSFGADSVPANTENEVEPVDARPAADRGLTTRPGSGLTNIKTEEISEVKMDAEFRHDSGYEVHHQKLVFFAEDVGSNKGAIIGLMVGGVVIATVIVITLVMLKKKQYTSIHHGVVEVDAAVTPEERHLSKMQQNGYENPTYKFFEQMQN

| Compound | IC50 (Cholinesterase [1]) [µM] | Ratio IC50 [2] | IC50 (Acetylcholinesterase [3]) [µM] | also measured |
| --- | --- | --- | --- | --- |
| c1ccc(C[n+]2cccc(Cn3c4c(c5ccccc53)CCCC4)c2)cc1 | 0.38 | 126 | 48.1 | – |
| Clc1ccc(C[n+]2ccc(Cn3c4c(c5ccccc53)CCCC4)cc2)cc1 | 2.1 | 12.2 | 25.6 | – |
| Fc1ccc(C[n+]2cccc(Cn3c4c(c5ccccc53)CCCC4)c2)cc1 | 0.52 | 138 | 71.7 | – |
| Fc1ccccc1C[n+]1cccc(Cn2c3c(c4ccccc42)CCCC3)c1 | 0.51 | 133 | 67.7 | – |
| Cc1ccccc1C[n+]1ccc(Cn2c3c(c4ccccc42)CCCC3)cc1 | 0.4 | 21 | 8.4 | – |
| Fc1ccc(C[n+]2ccc(Cn3c4c(c5ccccc53)CCCC4)cc2)cc1 | 0.73 | 44.9 | 32.8 | – |
| Clc1ccccc1C[n+]1ccc(Cn2c3c(c4ccccc42)CCCC3)cc1 | 0.29 | 22.4 | 6.5 | – |
| Cc1ccc(C[n+]2ccc(Cn3c4c(c5ccccc53)CCCC4)cc2)cc1 | 0.7 | 20 | 14 | – |
| Cc1cccc(C[n+]2cccc(Cn3c4c(c5ccccc53)CCCC4)c2)c1 | 0.11 | 153 | 16.8 | – |
| Clc1cccc(C[n+]2ccc(Cn3c4c(c5ccccc53)CCCC4)cc2)c1 | 0.26 | 18.5 | 4.8 | – |
| O=C1CCC(=O)N1Cc1cc[n+](Cc2cccc(F)c2)cc1 | – | 6.34 | – | IC50 (Acetylcholinesterase [4]): 7.19 µM; IC50 (Cholinesterase [5]): 45.6 µM |
| Fc1ccccc1C[n+]1ccc(Cn2c3c(c4ccccc42)CCCC3)cc1 | 0.63 | 47.6 | 30 | – |
| Clc1cccc(C[n+]2cccc(Cn3c4c(c5ccccc53)CCCC4)c2)c1 | 0.25 | 120 | 30 | – |
| O=C1c2ccccc2C(=O)N1Cc1cc[n+](Cc2ccccc2F)cc1 | – | 11.3 | – | IC50 (Acetylcholinesterase [4]): 0.77 µM; IC50 (Cholinesterase [5]): 8.71 µM |
| c1ccc(C[n+]2ccc(Cn3c4c(c5ccccc53)CCCC4)cc2)cc1 | 0.48 | 62.6 | 30 | – |
| O=C1Nc2ccccc2/C1=C\c1cc[n+](Cc2ccccc2Cl)cc1 | – | – | – | Ratio IC50 [6]: 3110; IC50 (Acetylcholinesterase [7]): 0.0004 µM; IC50 (Cholinesterase [8]): 1370 µM |
| Cc1ccccc1C[n+]1cccc(Cn2c3c(c4ccccc42)CCCC3)c1 | 0.38 | 124 | 47 | – |
| Fc1cccc(C[n+]2cccc(Cn3c4c(c5ccccc53)CCCC4)c2)c1 | 0.56 | 138 | 77.1 | – |
| Clc1ccc(C[n+]2cccc(Cn3c4c(c5ccccc53)CCCC4)c2)cc1 | 0.22 | 124 | 27.3 | – |
| Cc1cccc(C[n+]2ccc(Cn3c4c(c5ccccc53)CCCC4)cc2)c1 | 0.24 | 21.2 | 5.1 | – |
| Fc1cccc(C[n+]2ccc(Cn3c4c(c5ccccc53)CCCC4)cc2)c1 | 0.98 | 35 | 34.3 | – |
| O=C(NCc1cc[n+](Cc2cccc(F)c2)cc1)c1cc2ccccc2oc1=O | – | – | – | Ratio IC50 [6]: 0.83; IC50 (Acetylcholinesterase [9]): 10.1 µM; IC50 (Cholinesterase [10]): 12.2 µM |
| Clc1ccccc1C[n+]1cccc(Cn2c3c(c4ccccc42)CCCC3)c1 | 0.2 | 180 | 36.1 | – |
| Cc1ccc(C[n+]2cccc(Cn3c4c(c5ccccc53)CCCC4)c2)cc1 | 0.088 | 181 | 15.9 | inhibition [11]: 10%; inhibition [12]: 51.8%; Ratio IC50 [13]: 3.97; viability at 10 µM (PC-12): 65%; inhibition [14]: 55.7%; inhibition [15]: 30%; Ki (Cholinesterase [16]): 0.09 µM |
